The results in this text go back to patent US11278629B2, “Methods for improving anti-CD37 immunoconjugate therapy” (Debiopharm International, S.A., priority 2016, dated 2022).

Experiment [1] concerns lymphoma cell lines. As to the kind of experiment: Apoptosis induction, caspase 3/7 activation (Promega ApoTox-Glo Triplex Assay). Format: cell-based. Particulars: 33/54 cell lines; apoptosis = at least 1.5-fold increase in caspase 3/7 signal vs controls. From the text: (§1) Fifty-four lymphoma cell lines (ALCL, anaplastic large cell lines (n=5); CLL, chronic lymphocytic leukemia (n=2); ABC-DLBCL, activated B cell like diffuse large B cell (n=7); GCB-DLBCL, germinal center B cell like diffuse large B cell (n=20); MCL, mantle cell lymphoma (n=10); MZL, marginal zone lymphoma (n=6); PMBCL, Primary Mediastinal Large B-Cell Lymphoma (n=1); SMZL, splenic marginal zone lymphoma (n=3)) were exposed to increasing doses of IMGN529 or to the unconjugated cytotoxic payload DM1 for 72 hours. Cell proliferation was measured using the MTT assay. Apoptosis induction was defined by at least a 1.5-fold increase in caspase 3/7 signal activation with respect to controls using the Promega ApoTox-Glo Triplex Assay. CD37 surface expression was assessed by cytofluorimetry. Gene expression profiling (GEP) was done with the Illumina HumanHT-12 Expression BeadChips on untreated cell lines followed by GSEA (NES>|2|, P<0.05, FDR<0.25) and limma t-test (FC>|1.2|; P<0.05; top 200 up and top 200 down).

In experiment [2] the test system is lymphoma cell lines. As to the kind of experiment: Cell proliferation, MTT assay, fifty-four lymphoma cell lines. Format: cell-based. The conditions noted are these: 72 hours exposure, read-out: median IC50.
Source text: as §1

“IMGN529: immunoconjugate containing the huCD37-3 antibody, the SMCC linker, and the DM1 maytansinoid”: the “lymphoma cell lines in which apoptosis was induced” value in the experiment with lymphoma cell lines [1] is 61%.
For `COc1cc2cc(c1Cl)N(C)C(=O)C[C@H](OC(=O)[C@H](C)N(C)C(=O)CCS)[C@]1(C)O[C@H]1[C@H](C)C1C[C@@](O)(NC(=O)O1)[C@H](OC)/C=C/C=C(\C)C2` [DM1, N^2′-deacetyl-N^2′-(3-mercapto-1-oxopropyl)-maytansine], the IC50 with lymphoma cell lines [2] worked out at 0.03 nM.
